Source: ChEMBL document CHEMBL5338723, “Emerging Target-Directed Approaches for the Treatment and Diagnosis of Microbial Infections” (J Med Chem, 2023)
In brackets after ≈: the same amount, converted by molar mass. *1 amine or outer side, *2 acyl side, *3 side chain or, on linkers, in order; H or OH if unused. Where a SMILES comes first, the peptide text is derived from it. Side-chain parts run from the residue outwards. [ ]: non-standard residue; d: D form. The star is where a group is joined. X1 = Cn1c(=N)ccn([C@@H]2S[C@H]([C@@H](O)[C@@H](N[*:1])C(=O)[*:2])[C@H](O)[C@H]2O)c1=O; DAMPA = CN(Cc1cnc2nc(N)nc(N)c2n1)c1ccc(C(=O)*)cc1; Orn(N5-OH,N5-Ac) = CC(=O)N(O)CCC[C@H](N)C(=O)O; γGlu = O=C(O)[C@H](CCC(=O)[*:2])N[*:1]; Ethylenediamine = C(CN[*:2])N[*:1]

Key:
Streptococcus pneumoniae = test: Antimicrobial activity against Streptococcus pneumoniae assessed as microbial growth inhibition; format: functional
Yersinia enterocolitica = test: Antimicrobial activity against Yersinia enterocolitica assessed as microbial growth inhibition; format: functional
[1] = Cytotoxicity against human L02 assessed as lethal dose; format: toxicity, cell-based; conditions: L02 cells, read-out: LD50 (the source's name)
[2] = Potency index, ratio of test compound LD50 to methotrexate LD50 for cytotoxicity against human L02 cells; format: toxicity, cell-based
Escherichia coli [3] = test: Antimicrobial activity against Escherichia coli B assessed as microbial growth inhibition; format: functional
Escherichia coli [4] = test: Antimicrobial activity against Escherichia coli F assessed as microbial growth inhibition; format: functional
Escherichia coli [5] = test: Antimicrobial activity against Escherichia coli ML35p assessed as microbial growth inhibition; format: functional
Escherichia coli [6] = test: Antimicrobial activity against Escherichia coli MC4100 assessed as microbial growth inhibition; format: functional
Escherichia coli [7] = test: Antimicrobial activity against aroB negative Escherichia coli H1443 assessed as microbial growth inhibition; format: functional
Escherichia coli [8] = test: Antimicrobial activity against aroB/fepA negative Escherichia coli H873 assessed as microbial growth inhibition; format: functional
Escherichia coli [9] = test: Antimicrobial activity against aroB/fiu negative Escherichia coli H1594 assessed as microbial growth inhibition; format: functional
Escherichia coli [10] = test: Antimicrobial activity against aroB/cir negative Escherichia coli H2222 assessed as microbial growth inhibition; format: functional
Escherichia coli [11] = test: Antimicrobial activity against aroB/cir/fiu negative Escherichia coli H1728 assessed as microbial growth inhibition; format: functional
Escherichia coli [12] = test: Antimicrobial activity against aroB/fepA/cir negative Escherichia coli H1875 assessed as microbial growth inhibition; format: functional
Escherichia coli [13] = test: Antimicrobial activity against aroB/fepA/fiu negative Escherichia coli H1877 assessed as microbial growth inhibition; format: functional
Escherichia coli [14] = test: Antimicrobial activity against fhuA negative Escherichia coli C600 assessed as microbial growth inhibition; format: functional
Escherichia coli [15] = test: Antimicrobial activity against Escherichia coli C600 harboring pHX405 plasmid assessed as microbial growth inhibition; format: functional
Escherichia coli [16] = test: Antimicrobial activity against Escherichia coli W3110 assessed as microbial growth inhibition; format: functional
Escherichia coli [17] = test: Antimicrobial activity against pTon positive Escherichia coli W3110-KP1344 harboring pMS7 assessed as microbial growth inhibition; format: functional
Escherichia coli [18] = test: Antimicrobial activity against exbB/exbD negative Escherichia coli W3110-6 assessed as microbial growth inhibition; format: functional
Salmonella enteritidis = test: Antimicrobial activity against Salmonella enterica subsp. enterica serovar Enteritidis assessed as increase in microbial growth inhibition; format: functional
Klebsiella pneumoniae = test: Antibacterial activity against Klebsiella pneumoniae assessed as microbial growth inhibition; format: functional
Enterobacter cloacae = test: Antibacterial activity against Enterobacter cloacae; format: functional

Structure (SMILES): CC(=O)N(O)CCC[C@H](NC(=O)[C@H](CCCN(O)C(C)=O)NC(=O)[C@@H](N)CCCN(O)C(C)=O)C(=O)N[C@@H](CCC(=O)NCCNC(=O)CC[C@H](NC(=O)c1ccc(N(C)Cc2cnc3nc(N)nc(N)c3n2)cc1)C(=O)O)C(=O)O (H-[Orn(N5-OH,N5-Ac)][Orn(N5-OH,N5-Ac)][Orn(N5-OH,N5-Ac)]E([Ethylenediamine-γGlu-DAMPA])-OH)
- MIC (Streptococcus pneumoniae): 0.00172 µM (≈ 0.00196 µg/mL)
- MIC (Yersinia enterocolitica): 0.00684 µM (≈ 0.00781 µg/mL)
- CC50 [1]: 18.5 µM
- selectivity ratio [2]: 2310

Structure (SMILES): CC(=O)N(O)CCC[C@H](NC(=O)[C@H](CCCN(O)C(C)=O)NC(=O)[C@@H](N)CCCN(O)C(C)=O)C(=O)N[C@@H](CO)C(=O)N[C@@H](C(=O)O)[C@H](O)[C@H]1S[C@@H](n2ccc(=N)n(C)c2=O)[C@H](O)[C@H]1O (H-[Orn(N5-OH,N5-Ac)][Orn(N5-OH,N5-Ac)][Orn(N5-OH,N5-Ac)]S[X1]-OH)
- MIC (Escherichia coli [3]): 0.04 µM (≈ 0.038 µg/mL)
- MIC (Escherichia coli [4]): 0.04 µM (≈ 0.038 µg/mL)
- MIC (Escherichia coli [5]): 0.04 µM (≈ 0.038 µg/mL)
- MIC (Escherichia coli [6]): 0.04 µM (≈ 0.038 µg/mL)
- MIC (Escherichia coli [7]): 0.04 µM (≈ 0.038 µg/mL)
- MIC (Escherichia coli [8]): 0.04 µM (≈ 0.038 µg/mL)
- MIC (Escherichia coli [9]): 0.04 µM (≈ 0.038 µg/mL)
- MIC (Escherichia coli [10]): 0.04 µM (≈ 0.038 µg/mL)
- MIC (Escherichia coli [11]): 0.04 µM (≈ 0.038 µg/mL)
- MIC (Escherichia coli [12]): 0.04 µM (≈ 0.038 µg/mL)
- MIC (Escherichia coli [13]): 0.04 µM (≈ 0.038 µg/mL)
- MIC (Escherichia coli [14]): 0.04 µM (≈ 0.038 µg/mL)
- MIC (Escherichia coli [15]): 0.04 µM (≈ 0.038 µg/mL)
- MIC (Escherichia coli [16]): 0.04 µM (≈ 0.038 µg/mL)
- MIC (Escherichia coli [17]): 0.04 µM (≈ 0.038 µg/mL)
- MIC (Escherichia coli [18]): 0.04 µM (≈ 0.038 µg/mL)
- MIC (Salmonella enteritidis): 0.04 µM
- MIC (Klebsiella pneumoniae): 0.04 µM (≈ 0.038 µg/mL)
- MIC (Enterobacter cloacae): 0.04 µM (≈ 0.038 µg/mL)
